# Source: publication PMC8219695 (Nature Communications, 2021)
# Where “and” joins values, the source holds several entries; their conditions need not be identical. Equal entries are not always repeated.
# Tests used:
# mMOR [1] = biological target: T1, mMOR (Mus musculus, UniProt P42866); assay: CAMYEL BRET antagonism assay at mMOR (inhibition of DAMGO); format: cell-based; conditions: source data of Fig 8a and Table 5, listed as C11-Br-7OH (24);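 further: BRET signal rises as cAMP falls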
# T1 construct: signal peptide (heterologous, not specified) (N); expressed in transfected cells; pcDNA3.1(+) construct made in house
# hKOR = hKOR (Homo sapiens, UniProt P41145); assay: CAMYEL BRET cAMP agonist assay at hKOR; format: cell-based; conditions: individual replicates, Supplementary Figure 8A source data
# mKOR = biological target: T2, mKOR (Mus musculus, UniProt P33534); assay: [125I]BNtxA radioligand competition binding, mouse KOR; conditions: mean ± SEM, n = 3; [125I]BNtxA; read-out: Ki ± SEM mKOR
# T2 construct: expressed in transfected cells; membranes
# mMOR [2] = biological target: T1, mMOR; assay: [125I]BNtxA radioligand competition binding, mouse MOR; conditions: mean ± SEM, n = 3; [125I]BNtxA; read-out: Ki ± SEM mMOR
# mMOR [3] = biological target: T1, mMOR; assay: CAMYEL BRET cAMP agonist assay at mMOR; format: cell-based; conditions: mMOR; for cAMP %: single replicates, source data Fig 6b, listed as C11-Br-7OH (24)
# hMOR = biological target: T3, hMOR (Homo sapiens, UniProt P35372); assay: CAMYEL BRET cAMP agonist assay at hMOR; format: cell-based; conditions: for cAMP %: hMOR, single replicates, source data Fig 6c, listed as C11-Br-7OH (24)
# T3 construct: expressed in transfected cells; plasmid a gift from Dr. Nevin Lambert
# [4] = Log[drug] (M) -13, cAMP inhibition as % of DAMGO
smiles,measurement,setting,value
"CC[C@@H]1CN2CC[C@@]3(O)C(=Nc4cc(Br)cc(OC)c43)[C@@H]2C[C@@H]1/C(=C\OC)C(=O)OC [11-Br-7OH (24), 11-Br-7OH]","Antagonist activity at mMOR, raw signal (single replicate values)",mMOR [1]; Log[drug] (M) -8,0.2079 and 0.2137 and 0.206 and 0.2077 and 0.2162 and 0.1891 and 0.1751 and 0.1625 and 0.1706
same,"Antagonist activity at mMOR, raw signal (single replicate values)",mMOR [1]; Log[drug] (M) -9,0.1949 and 0.206 and 0.225 and 0.1941 and 0.2008 and 0.2159 and 0.1687 and 0.1594 and 0.1786
same,"Antagonist activity at mMOR, raw signal (single replicate values)",mMOR [1]; Log[drug] (M) -10,0.1894 and 0.2034 and 0.2214 and 0.2024 and 0.209 and 0.1982 and 0.1754 and 0.1654 and 0.1797
same,"Antagonist activity at mMOR, raw signal (single replicate values)",mMOR [1]; Log[drug] (M) -11,0.2409 and 0.2089 (2×) and 0.2025 and 0.1938 and 0.2023 and 0.1798 and 0.1667 and 0.1739
same,Agonist activity of 7OH analogs at hKOR,hKOR; Log [drug](M) -5,10.9149 and -7.215 and 4.286 and 11.8421 and 11.499 and 10.9733 and -4.579 and 2.634 and 3.416
same,Agonist activity of 7OH analogs at hKOR,hKOR; Log [drug](M) -6,3.035 and -0.7724 and -13.4731 and 3.219 and -0.695 and 8.186 and -5.571 and -3.171 and 0.4347
same,Agonist activity of 7OH analogs at hKOR,hKOR; Log [drug](M) -7,-0.1722 and -16.4342 and -16.1746 and -2.26 and -3.79 and -3.25 and 0.1411 and 2.3 and 5.19
same,Agonist activity of 7OH analogs at hKOR,hKOR; Log [drug](M) -8,22.3379 and -4.57 and 1.209 and 8.576 and -8.308 and -4.317 and 11.4126 and 9.041 and 4.453
same,Agonist activity of 7OH analogs at hKOR,hKOR; Log [drug](M) -9,2.393 and 14.1276 and 3.431 and 19.0489 and 8.55 and -5.559 and -3.604 and -6.454 and -4.21
same,Agonist activity of 7OH analogs at hKOR,hKOR; Log [drug](M) -10,-9.31 and -5.502 and 19.956 and 11.266 and -0.5812 and -7.816 and -4.981 and -0.9266 and -11.4459
same,Agonist activity of 7OH analogs at hKOR,hKOR; Log [drug](M) -11,21.966 and -9.511 and 21.9409 and -12.3295 and 2.605 and 7.521 and 2.85 and -2.233 and 3.089
same,Agonist activity of 7OH analogs at hKOR,hKOR; Log [drug](M) -13,-3.621 and -4.92 and 8.541 and 7.349 and -4.448 and -2.901 and 2.036 and -3.052 and 1.015
same,Ki,mKOR,81.1 ± 7.1 nM
same,Ki,mMOR [2],32.4 ± 1.4 nM
same,cAMP %,mMOR [3]; Log[drug] (M) -5,9.013% and 6.73% and 3.065% and 5.631% and 1.057% and 0.04315% and 7.004% and 14.1806% and 4.634%
same,cAMP %,mMOR [3]; Log[drug] (M) -6,5.8044% and 1.851% and 7.958% and 11.2571% and 3.589% and -1.762% and 6.0175% and 2.324% and 0.676%
same,cAMP %,mMOR [3]; Log[drug] (M) -7,-3.894% and -5.88% and 9.775% and 0.4502% and 1.258% and -1.708% and 1.616% and 1.4183% and 0.1827%
same,cAMP %,mMOR [3]; Log[drug] (M) -8,1.549% and 0.05958% and 0.01199% and -1.248% and 2.618% and 1.046% and 3.634% and 0.478% and 3.5882%
same,cAMP %,mMOR [3]; Log[drug] (M) -9,13.8914% and 20.7075% and 0.6937% and 7.1213% and -0.7937% and 5.232% and 4.985% and -2.644% and 5.425%
same,cAMP %,mMOR [3]; Log[drug] (M) -10,10.1801% and 15.9014% and 8.011% and 8.742% and 7.948% and 6.092% and 2.318% and -3.2024% and 3.127%
same,cAMP %,mMOR [3]; Log[drug] (M) -11,14.2135% and 8.364% and 1.552% and 8.664% and 7.808% and 10.8013% and 0.4413% and -1.089% and 0.6474%
same,cAMP %,mMOR [3]; [4],6.348% and 21.1377% and 5.87% and 7.068% and 6.954% and 15.1455% and 5.75% and 5.389% and 3.7452%
same,Emax,mMOR [3]; maximal inhibitory effect on cAMP levels relative to DAMGO,< 10%
same,EC50,hMOR,401 nM
same,Emax,hMOR,14%
same,cAMP %,hMOR; Log[drug] (M) -5,14.6374% and 26.5598% and 13.4593% and 12.3793% and 6.1202% and 3.5813% and 27.8092% and 3.652% and 6.737%
same,cAMP %,hMOR; Log[drug] (M) -6,18.6989% and 7.716% and 19.1803% and 0.2165% and 6.6608% and -0.2253% and 39.9126% and 18.2077% and 19.9668%
same,cAMP %,hMOR; Log[drug] (M) -7,12.0186% and 17.6725% and 14.4534% and 3.531% and 0.1326% and -1.3668% and -1.063% and 7.0578% and -1.6001%
same,cAMP %,hMOR; Log[drug] (M) -8,3.165% and 4.1647% and 7.3741% and 8.619% and 14.9301% and 11.6764% and -5.609% and -5.366% and 10.9759%
same,cAMP %,hMOR; Log[drug] (M) -9,2.317% and -1.298% and -1.019% and -2.259% and -7.165% and 10.2432% and 25.8292% and 21.9013% and 22.3959%
same,cAMP %,hMOR; Log[drug] (M) -10,4.34% and -1.394% and 4.504% and 1.432% and 0.8602% and -2.292% and 0.6443% and 11.4211% and 26.9944%
same,cAMP %,hMOR; Log[drug] (M) -11,6.752% and 9.529% and 9.016% and 11.4512% and -5.469% and 12.8282% and 13.3991% and 6.363% and 12.7423%
same,cAMP %,hMOR; [4],4.239% and 4.052% and 15.2175% and 4.859% and 6.721% and 16.8511% and 4.407% and 8.458% and 8.078%
